The record followed here is publication PMC4666608, “Metabolic Profiling of Chicken Embryos Exposed to Perfluorooctanoic Acid (PFOA) and Agonists to Peroxisome Proliferator-Activated Receptors” (PLoS ONE, 2015).

Values joined by “and” are separate entries in the source; they are usually repeats but may differ in a detail not shown here. Equal entries are not always repeated.

This data set deals with chicken embryos. In words: Embryo mortality after in ovo exposure (air sac injection E7, examined E12). Type of data set: in vivo, Gallus gallus domesticus. The protocol:
Controls were injected with 20 μL vehicle only (DMSO).
Embryos were dissected and sampled on E12. The treatment group was concealed to the one carrying out embryo dissections and the order of dissection of the embryos was randomized. The embryos were examined for viability and gross morphology, e.g. appearance of the liver. The sex was determined by the presence of a pair of testes or an ovary.
Mortality rates were analyzed with Fisher’s exact test.

Where [1] appears, read: in ovo injection E7, sampled E12, 150 μg/egg.
Setting [2] is: in ovo injection E7, sampled E12, PFOA 50 μg/egg.
Setting [3] is: in ovo injection E7, sampled E12, PFOA 250 μg/egg.
Where [4] appears, read: in ovo injection E7, sampled E12, PFOA 1000 μg/egg.

On to `CC(C)(Sc1ccc(CCN(CCCCC2CCCCC2)C(=O)NC2CCCCC2)cc1)C(=O)O` [GW7647, reference compound], for which, under setting [1], the Mortality rate is given as 0% and the “Mortality rate, Ratio” value is reported as 0/40.

`O=C(O)C(F)(F)C(F)(F)C(F)(F)C(F)(F)C(F)(F)C(F)(F)C(F)(F)F` [PFOA, perfluorooctanoic acid]: the Mortality rate (PFOA 1000 μg/egg, replicate A) was 40%; the Mortality rate (PFOA 1000 μg/egg, replicate B) came out at 60%; the Mortality rate (PFOA 1000 μg/egg, replicate C) amounted to 33%; the Mortality rate (PFOA 1000 μg/egg, replicate D) is given as 7%; the Mortality rate under setting [2] came to 5%; the Mortality rate under setting [3] stood at 2.5%. Further, the Mortality rate under setting [4] was 35% and 35 ^*** %. Moreover, the “Dose with increased mortality” value (exposed E7 to E12) is on record as 18 mg/kg egg. Moreover, under “exposed E7 to E12”, the “Dose with no effect on survival (no effect level)” value worked out at 4.2 mg/kg egg. The Mortality (follow-up study, PFOA 1000 μg/egg, N = 25, control 12%) is given as 40%. Further, the “Mortality rate, Ratio” value is 2/40 under setting [2], 1/40 under setting [3] and 19/54 under setting [4].

Turning to `CN(CCOc1ccc(CC2SC(=O)NC2=O)cc1)c1ccccn1` (centres unmarked) [Rosiglitazone, rosiglitazone, reference compound], under setting [1], the Mortality rate was 5% and the “Mortality rate, Ratio” value is reported as 2/40.
